Source: article PMC5531494, “Target specificity, in vivo pharmacokinetics, and efficacy of the putative STAT3 inhibitor LY5 in osteosarcoma, Ewing's sarcoma, and rhabdomyosarcoma” (PLoS ONE, 2017)
pIC50: −log10 of the molar value. Marks after values point to notes of the source that are not given here.

Key:
Rh36 = experiment: Subcutaneous xenograft study; type: in vivo, mice; conditions: Rh36, 10 mg/kg daily for 28 days
Description: (§1) C.B-17SC scid^-/- female mice (Taconic Farms, Germantown NY), were used to propagate subcutaneously implanted tumors. All mice were maintained under barrier conditions and experiments were conducted using protocols and conditions approved by the institutional animal care and use committee at University of Texas Health Science Center at San Antonio. Ten mice were used in each control or treatment group. Tumor volumes (cm^3) were determined and responses were determined using three activity measures as previously described.
(§2) The data were analyzed by using GraphPad Prism software (GraphPad Software, Inc., San Diego, CA). Data are presented as mean ± standard deviation. Data were analyzed by one-way analysis of variance (ANOVA), and Tukey’s post-test was used to assess differences between groups. Differences were considered statistically significant at p < 0.05. For in vivo xenograft models, an event was defined as four times the tumor volume at baseline similar to the PPTP criteria. The probabilities of time-to-event among groups were compared using log-rank test. The anti-tumor efficacy of LY5 was analyzed by using the statistical pipeline developed in PPTP [27].

OS-17 = experiment: Subcutaneous xenograft study; type: in vivo, mice; conditions: OS-17, 10 mg/kg daily for 28 days
Description: as §1, §2

Rh10 = experiment: Subcutaneous xenograft study; type: in vivo, mice; conditions: Rh10, 10 mg/kg daily for five days for four consecutive weeks
Description: as §1, §2

ES and OS cells = experiment: Alamar Blue cell viability assay, ES and OS panel; type: cell-based; conditions: Homo sapiens; range over ES and OS cells
Description: Sarcoma cell lines were seeded in 24-well plates in 1X RPMI medium containing 10% fetal bovine serum. Cells were then incubated with DMSO (control) or concentrations of LY5 ranging from 10 nM to 10 μM for 96 hrs. At the end of the incubation period, Alamar Blue (Invitrogen, Carlsbad, CA) was added to cells at one-tenth the volume of the cell culture medium and incubated for 3 hrs at 37° C in the dark. Fluorescence was then measured at an excitation/emissions wavelength of 570/590 nm and emission wavelength of 590 nm.
Fig 2 Biologic activity of LY5 in sarcoma cell lines. Dose response curves for LY5: RMS cell lines (RH30, RD, JR-1), ES cell lines (ES-3, ES-6, ES-7, ES-8), and an OS cell line (OS-17) were treated with LY5 (concentrations ranging from 10 nM to 10 μM) for 96 hours. Cell viability was determined using Alamar Blue staining. IC50 values are indicated for each cell line. Analyses were performed in triplicate and data are plotted as means ± standard deviation.

K7M2 cells = experiment: Ex vivo pulmonary metastasis assay (PuMA); type: cell-based, murine; conditions: K7M2, 10 μM LY5 only
Description: GFP-positive K7M2 and MG63.3 cells (3 x 10^5 MG63.3; 5 x 10^5 K7M2) were administered via tail vein injection into mice. Following humane euthanasia, the lungs were insufflated with a culture medium/agarose mixture to a constant hydrostatic pressure of 20 cm H2O and prepared for ex vivo culture as previously described. Lung sections were cultured in complete media containing LY5 (0, 0.1, 1, 10 or 50 μM) on sterile Gelfoam using 6 lung sections per treatment condition. Media was changed every 48 hrs and lung slices were imaged with a fluorescent microscope every 7 days for a total of 21 days.
MG63.3 and K7M2 cell lines were exposed to increasing concentrations of LY5 to determine the IC50 (A). Western blot analysis was performed to determine the dose and duration of LY5 exposure required to inhibit STAT3 phosphorylation (B-C). Serial imaging of fluorescently labeled MG63.3 and K7M2 cells was performed in ex vivo LY5 treated lung sections (D). Metastatic burden was quantified by evaluation of the percent tumor burden (mean normalized fluorescent area). Data are reported as the mean ± standard deviation. In MG 63.3 experiment, p < 0.0001 Kruskal-Wallis test, p < 0.05 10 μM vs control at days 7, 14, and 21, 10 μM vs 1 μM at days 7, 14, and 21, 50 μM vs control at days 7, 14, and 21, and 50 μM vs 10 μM at days 7, 14, and 21 post-test Dunn. […]

[1] = system: RH10, RH36, OS-17 and OS-1; experiment: Subcutaneous PDX models of RMS and OS, overall; type: in vivo, mice; conditions: subcutaneous PDX models RH10, RH36, OS-17, OS-1
Description: as §1
(§3) To further examine the efficacy of LY5, we administered LY5 using subcutaneous PDX models of RMS (RH10 and RH36) and OS (OS-17 and OS-1). RH10, RH36 and OS-1 were derived from tissue explants, therefore no corresponding cell lines exist. Tumors were harvested 2 hrs after final drug administration. […] In addition, STAT3 phosphorylation was not observed in control or treated tumor derived from OS-17, and inhibition of STAT3 phosphorylation was not observed in OS-1 PDX models treated with 40 mg/kg twice daily.

STAT3 = STAT3 (Homo sapiens, UniProt P40763); experiment: STAT3 phosphorylation in OS-1 PDX tumors; type: in vivo, mice; design: from tissue; host or cells: OS-17-luc lung metastases and OS-1 subcutaneous PDX tumours in C.B-17 scid mice; conditions: 40 mg/kg twice daily, tumors harvested 2 hrs after final drug administration
STAT3, sequence (P40763 whole entry): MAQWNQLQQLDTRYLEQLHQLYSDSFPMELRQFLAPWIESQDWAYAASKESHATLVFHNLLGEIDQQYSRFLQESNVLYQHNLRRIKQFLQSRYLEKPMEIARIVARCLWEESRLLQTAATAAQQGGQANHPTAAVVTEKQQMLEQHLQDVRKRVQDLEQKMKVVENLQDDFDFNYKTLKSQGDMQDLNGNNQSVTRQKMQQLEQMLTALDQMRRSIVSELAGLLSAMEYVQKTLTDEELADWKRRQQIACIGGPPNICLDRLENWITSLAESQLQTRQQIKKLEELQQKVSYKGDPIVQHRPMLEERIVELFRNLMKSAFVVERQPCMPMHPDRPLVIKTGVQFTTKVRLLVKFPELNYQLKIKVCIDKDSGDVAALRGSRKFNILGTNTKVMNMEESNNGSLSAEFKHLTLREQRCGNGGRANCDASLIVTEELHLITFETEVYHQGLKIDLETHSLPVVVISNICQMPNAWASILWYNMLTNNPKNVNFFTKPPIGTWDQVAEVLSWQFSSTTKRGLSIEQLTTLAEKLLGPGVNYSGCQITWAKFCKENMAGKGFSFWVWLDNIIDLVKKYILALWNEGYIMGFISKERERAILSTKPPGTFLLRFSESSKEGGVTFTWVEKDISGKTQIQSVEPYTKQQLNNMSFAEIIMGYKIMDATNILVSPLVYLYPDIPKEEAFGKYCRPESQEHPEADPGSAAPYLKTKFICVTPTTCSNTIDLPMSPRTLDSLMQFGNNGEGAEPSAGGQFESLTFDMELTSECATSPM
Description: as §3

OS-1 = experiment: Subcutaneous xenograft study; type: in vivo, mice; conditions: OS-1, 40 mg/kg twice per day for five days for four consecutive weeks
Description: as §1
as §2, with “The probabilities of time-to-event among groups were compared using log-rank test.” left out
Fig 6 Effects of LY5 are not mediated via STAT3 inhibition. […] After 72 hours of transfection, cells were harvested and analyzed for total (T) STAT3 and GAPDH protein expression by immunoblotting. […] Cell viability was then determined using Alamar Blue staining. […]

`NS(=O)(=O)c1cccc2c1C(=O)C=C(Nc1cccnc1)C2=O` [LY5, 5,8-dioxo-6-(pyridin-3-ylamino)-5,8-dihydronaphthalene-1-sulfonamide] was tested, and the “Event-free survival (Treatment/Control)” value (Rh36) was 0.94, the “Group Response” value (Rh36) was “PD1 (Progressive disease 1, <50% tumor growth inhibition (TGI))” and the “Median day to event” value (Rh36) was 16.5 days. The “Survival (%)” value (Rh36) was 100%, the “Event-free survival (Treatment/Control)” value (OS-17) was 1.15 and the “Group Response” value (OS-17) was “PD1 (Progressive disease 1, <50% tumor growth inhibition (TGI))”. The “Median day to event” value (OS-17) was 19.7 days, the “Survival (%)” value (OS-17) was 90% and the “Event-free survival (Treatment/Control)” value (Rh10) was 1.11. The “Group Response” value (Rh10) was “PD1^e (Progressive disease 1, <50% tumor growth inhibition (TGI))”, the “Median day to event” value (Rh10) was 18.7 days and the “Survival (%)” value (Rh10) was 100%. For the same compound, the pIC50 (ES and OS cells) was 5.29 to 5.85, the “tumor burden in PuMA” value (K7M2 cells) was “reduction” and the “PDX growth compared to control” value [1] was “did not decrease PDX growth”. For the same compound, the “inhibition of STAT3 phosphorylation in tumors” value (STAT3) was “not observed”, the “Group Response” value (OS-1) was “PD2^f (Progressive disease 2, >50% TGI, >25% tumor progression)” and the “Survival (%)” value (OS-1) was 90%.
